According to the supplement of paper PMC10307832:

Legend:
Assay in all cases: relative viability (nuclei count vs DMSO), 5 days (fraction); higher = more cells survive
Selumetinib = compound: Cn1cnc2c(F)c(Nc3ccc(Br)cc3Cl)c(C(=O)NOCCO)cc21 [Selumetinib]
Method in brief: (§1)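 Vehicle-anchored 1536-well plates of lung cancer cell lines, held overnight at 37 °C, were pinned with five library-drug doses (not always all listed) spaced by √10. No medium change followed over the next 5 days, after which the cells were fixed, permeabilised and Hoechst-stained together and imaged at 4×. Nuclei were counted with MetaXpress, and viability is treated-well nuclei over vehicle-well nuclei, taken as a median across plates. Plates passed with control CV below 25% and at least one doubling.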

Venetoclax = compound: CC1(C)CCC(CN2CCN(c3ccc(C(=O)NS(=O)(=O)c4ccc(NCC5CCOCC5)c([N+](=O)[O-])c4)c(Oc4cnc5[nH]ccc5c4)c3)CC2)=C(c2ccc(Cl)cc2)C1 [Venetoclax]
Method in brief: as §1

Selumetinib + Pemetrexed = compound: Cn1cnc2c(F)c(Nc3ccc(Br)cc3Cl)c(C(=O)NOCCO)cc21 [Selumetinib] + Nc1nc2[nH]cc(CCc3ccc(C(=O)N[C@@H](CCC(=O)O)C(=O)O)cc3)c2c(=O)[nH]1 [Pemetrexed] (partner 0.2 µM)
Method in brief: (§2)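 Relative viability divides the nuclei count in treated wells by that in vehicle wells. Lung cancer cell lines were seeded in 1536-well plates, dosed by pin tool the next day, and fixed and stained after 5 days in one step with final 0.05% Triton X-100, 1% formaldehyde and 1 ug/ml Hoechst. Dosing was a single drug or a fixed anchor-drug dose plus five library-drug doses (not always all listed) in √10 steps, and values are medians of duplicate plates imaged at 4×.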

Venetoclax + OSI-027 = compound: CC1(C)CCC(CN2CCN(c3ccc(C(=O)NS(=O)(=O)c4ccc(NCC5CCOCC5)c([N+](=O)[O-])c4)c(Oc4cnc5[nH]ccc5c4)c3)CC2)=C(c2ccc(Cl)cc2)C1 [Venetoclax] + COc1cccc2cc(-c3nc([C@H]4CC[C@H](C(=O)O)CC4)n4ncnc(N)c34)[nH]c12 [OSI-027] (partner 0.5 µM)
Method in brief: as §2

| Cell Line | relative viability (Selumetinib; 0.02 µM) | relative viability (Selumetinib; 0.06325 µM) | relative viability (Selumetinib; 0.2 µM) | relative viability (Selumetinib; 0.6325 µM) | relative viability (Venetoclax; 0.01 µM) | relative viability (Venetoclax; 0.03162 µM) | relative viability (Venetoclax; 0.1 µM) | relative viability (Venetoclax; 0.3162 µM) | relative viability (Venetoclax; 1 µM) | relative viability (Selumetinib + Pemetrexed; first compound 0.02 µM) | relative viability (Selumetinib + Pemetrexed; first compound 0.06325 µM) | relative viability (Selumetinib + Pemetrexed; first compound 0.2 µM) | relative viability (Selumetinib + Pemetrexed; first compound 0.6325 µM) | relative viability (Venetoclax + OSI-027; first compound 0.01 µM) | relative viability (Venetoclax + OSI-027; first compound 0.03162 µM) | relative viability (Venetoclax + OSI-027; first compound 0.1 µM) | relative viability (Venetoclax + OSI-027; first compound 0.3162 µM) | relative viability (Venetoclax + OSI-027; first compound 1 µM) |
| --- | --- | --- | --- | --- | --- | --- | --- | --- | --- | --- | --- | --- | --- | --- | --- | --- | --- | --- |
| 201T | 0.94 | 0.901 | 0.91 | 0.888 | 0.975 | 0.989 | 0.982 | 0.984 | 0.982 | 0.358 | 0.328 | 0.323 | 0.308 | 0.728 | 0.724 | 0.687 | 0.774 | 0.628 |
| A549 | 0.864 | 0.669 | 0.656 | 0.449 | 0.984 | 0.99 | 0.994 | 0.969 | 0.937 | – | – | – | – | – | – | – | – | – |
| A-427 | 1.1 | 0.994 | 1.03 | 1.05 | 0.892 | 1.14 | 0.901 | 1.08 | 0.998 | 1.11 | 1.05 | 1.05 | 1.04 | 0.449 | 0.572 | 0.434 | 0.487 | 0.46 |
| ABC-1 | 0.885 | 0.757 | 0.875 | 0.841 | 1.11 | 0.981 | 0.974 | 0.938 | 0.897 | – | – | – | – | 0.569 | 0.536 | 0.444 | 0.488 | 0.442 |
| BEN | 0.934 | 1.02 | 0.863 | 0.938 | 1.03 | 1.09 | 0.887 | 0.999 | 0.941 | 0.806 | 0.765 | 0.697 | 0.888 | 0.291 | 0.295 | 0.289 | 0.281 | 0.281 |
| CAL-12T | 0.88 | 0.794 | 0.781 | 0.737 | 0.944 | 1.05 | 0.923 | 0.956 | 0.886 | 1.28 | 1.25 | 1.1 | 0.969 | 0.641 | 0.693 | 0.639 | 0.549 | 0.413 |
| COR-L23 | 1.09 | 1.03 | 1.07 | 0.99 | 0.979 | 1.03 | 0.967 | 0.999 | 0.911 | 0.202 | 0.217 | 0.21 | 0.194 | 0.661 | 0.839 | 0.713 | 0.687 | 0.696 |
| COR-L 105 | 0.713 | 0.572 | 0.672 | 0.55 | 0.946 | 0.917 | 0.834 | 1.02 | 0.873 | 1.11 | 1.02 | 0.841 | 0.582 | 0.71 | 0.737 | 0.552 | 0.707 | 0.73 |
| Calu-6 | 1.04 | 0.777 | 0.677 | 0.478 | 1.03 | 1.06 | 0.985 | 0.991 | 0.973 | – | – | – | – | – | – | – | – | – |
| ChaGo-K-1 | 0.999 | 0.939 | 0.946 | 0.929 | 1.06 | 1.16 | 0.888 | 1.01 | 0.99 | 0.258 | 0.258 | 0.275 | 0.256 | 0.716 | 0.634 | 0.516 | 0.552 | 0.479 |
| EBC-1 | 0.959 | 0.828 | 0.759 | 0.523 | 0.961 | 1.05 | 0.961 | 0.926 | 0.894 | – | – | – | – | – | – | – | – | – |
| EKVX | 0.784 | 0.775 | 0.645 | 0.565 | 0.998 | 1 | 0.913 | 0.975 | 0.937 | 0.342 | 0.361 | 0.323 | 0.307 | 0.668 | 0.731 | 0.646 | 0.76 | 0.63 |
| EMC-BAC-2 | 1.38 | 1.16 | 1.06 | 1.13 | 0.977 | 1.14 | 0.945 | 1.15 | 0.96 | 0.508 | 0.539 | 0.522 | 0.574 | 0.405 | 0.441 | 0.371 | 0.403 | 0.353 |
| EPLC-272H | 0.875 | 0.774 | 0.614 | 0.648 | 0.874 | 1.09 | 0.934 | 1.03 | 0.888 | 0.317 | 0.375 | 0.326 | 0.34 | 0.284 | 0.294 | 0.281 | 0.292 | 0.3 |
| H3255 | 0.983 | 0.914 | 0.944 | 0.93 | 1 | 1.04 | 0.98 | 1.01 | 0.933 | 0.564 | 0.571 | 0.552 | 0.549 | 0.577 | 0.541 | 0.493 | 0.506 | 0.668 |
| HARA | 0.903 | 0.819 | 0.824 | 0.718 | 0.903 | 1.08 | 0.926 | 1.06 | 0.993 | 0.24 | 0.179 | 0.224 | 0.217 | 0.427 | 0.571 | 0.452 | 0.427 | 0.362 |
| HCC-15 | 0.844 | 0.64 | 0.487 | 0.389 | 0.937 | 1.07 | 0.929 | 0.902 | 0.909 | 0.194 | 0.221 | 0.203 | 0.214 | 0.653 | 0.67 | 0.721 | 0.658 | 0.549 |
| HCC-44 | 1 | 1.01 | 1.04 | 1.1 | 0.935 | 0.955 | 0.983 | 0.974 | 0.929 | 0.635 | 0.748 | 0.684 | 0.75 | 0.609 | 0.652 | 0.539 | 0.589 | 0.477 |
| HCC-78 | 0.924 | 0.853 | 0.802 | 0.91 | 1.1 | 1.21 | 1.01 | 0.959 | 0.942 | 0.836 | 0.892 | 0.918 | 0.903 | 0.4 | 0.387 | 0.35 | 0.347 | 0.371 |
